Results reported in US20180228804A1, “COMBINATION THERAPY OF HBV AND HDV INFECTION” (MYR GMBH, priority 2014, published 2018).

How the values were obtained:
[1] = test system: HepaRG cells infected with HBV/HDV containing serum; assay: Number of HBcAg-positive HepaRG cells on day 6 post infection by HBcAg-specific IF, Myrcludex B with or without entecavir; type: cell-based; conditions: immunochemistry
[2] = test system: HBV; conditions: after two years of treatment; cited from earlier work

| Compound | effect of entecavir on the inhibition of HBV receptor by Myrcludex B in vitro [1] | HBsAg seroconversion [2] |
| --- | --- | --- |
| C=C1[C@H](CO)[C@@H](O)C[C@@H]1n1cnc2c(=O)[nH]c(N)nc21 [entecavir] | did not improve |  |
| C[C@H](Cn1cnc2c(N)ncnc21)OCP(=O)(O)O [tenofovir] |  | 4 % of patients |
